Laboratory results taken from patent US7407973B2, “Use of pirfenidone in therapeutic regimens” (Intermune, Inc., priority 2003, dated 2008).

Tested on: other kinases tested
Assay: Human kinase panel, overall conclusion: other kinases
Type: biochemical
Experimental: Enzymatic activity of various human kinases was assayed in the presence and the absence of pirfenidone. Percent enzyme activity of various human enzymes in the presence of substrate and pirfenidone are shown in FIGS. 1-5, and in Table 2, below, where “percent enzyme activity” is the percent of the control activity (e.g., in the absence of pirfenidone): […]

Inhibition of other kinases tested (conclusion from Table 2 data): does not substantially inhibit
SMILES: Cc1ccc(=O)n(-c2ccccc2)c1 [pirfenidone, 5-methyl-1-phenyl-2-(1H)-pyridone]
